Results from PubChem BioAssay AID192 (DTP/NCI, 2004).
“And” between values parts separate entries of the source, which are not always exact repeats. Identical values can stand only once. Toxic doses and inconclusive results are not listed.

Tested on: BDF1 mice, B16 melanoma ip, median survival T/C
Experiment: NCI In Vivo Anticancer Drug Screen. Data for tumor model B16 Melanoma (intraperitoneal) in B6D2F1 (BDF1) mice
Conditions: endpoint: median survival time, higher = longer survival
Summary of the method: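 Transplantable tumor model; survival or tumor size measured; reported as T/C, treated over vehicle control.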

[1] = dose: 50.0 mg/kg/injection, schedule: Q01DX009 (ip), vehicle: other
[2] = dose: 50.0 mg/kg/injection, schedule: Q01DX009 (ip), vehicle: Klucel (hydroxypropylcellulose) (HPC)
[3] = dose: 100.0 mg/kg/injection, schedule: Q01DX009 (ip), vehicle: Klucel (hydroxypropylcellulose) (HPC)
[4] = dose: 100.0 mg/kg/injection, schedule: Q01DX009 (ip), vehicle: saline with Tween-80
[5] = dose: 200.0 mg/kg/injection, schedule: Q01DX009 (ip), vehicle: Klucel (hydroxypropylcellulose) (HPC)
[6] = dose: 200.0 mg/kg/injection, schedule: Q01DX009 (ip), vehicle: saline with Tween-80
[7] = dose: 400.0 mg/kg/injection, schedule: Q01DX009 (ip), vehicle: saline with Tween-80
[8] = dose: 50.0 mg/kg/injection, schedule: Q01DX009 (ip), vehicle: saline
[9] = dose: 100.0 mg/kg/injection, schedule: Q01DX009 (ip), vehicle: saline
[10] = dose: 200.0 mg/kg/injection, schedule: Q01DX009 (ip), vehicle: saline
[11] = dose: 25.0 mg/kg/injection, schedule: Q01DX009 (ip), vehicle: Klucel (hydroxypropylcellulose) (HPC)

CCCCCCCCCCCC(=O)NC1CC(O[C@H]2C[C@](O)(C(=O)CO)Cc3c(O)c4c(c(O)c32)C(=O)c2c(OC)cccc2C4=O)OC(C)C1O (stereo partly drawn)
T/C (dose: 12.5 mg/kg/injection, schedule: Q01DX001 (ip), vehicle: distilled water + Tween-80): 119 % of control
T/C (dose: 12.5 mg/kg/injection, schedule: Q01DX001 (ip), vehicle: water): 195 % of control
T/C (dose: 25.0 mg/kg/injection, schedule: Q01DX001 (ip), vehicle: distilled water + Tween-80): 189 % of control
T/C (dose: 25.0 mg/kg/injection, schedule: Q01DX001 (ip), vehicle: water): 233 % of control
T/C (dose: 50.0 mg/kg/injection, schedule: Q01DX001 (ip), vehicle: distilled water + Tween-80): 195 % of control
T/C (dose: 50.0 mg/kg/injection, schedule: Q01DX001 (ip), vehicle: water): 257 % of control
T/C (dose: 100.0 mg/kg/injection, schedule: Q01DX001 (ip), vehicle: distilled water + Tween-80): 258 % of control
T/C (dose: 100.0 mg/kg/injection, schedule: Q01DX001 (ip), vehicle: water): 325 % of control
T/C (dose: 200.0 mg/kg/injection, schedule: Q01DX001 (ip), vehicle: distilled water + Tween-80): 215 % of control
T/C (dose: 200.0 mg/kg/injection, schedule: Q01DX001 (ip), vehicle: water): 104 % of control
T/C (dose: 400.0 mg/kg/injection, schedule: Q01DX001 (ip), vehicle: distilled water + Tween-80): 231 % of control
T/C (dose: 400.0 mg/kg/injection, schedule: Q01DX001 (ip), vehicle: water): 102 % of control

Nc1nc(Cl)c2[nH]cnc2n1
T/C (dose: 0.09 mg/kg/injection, schedule: Q01DX009 (ip), vehicle: other): 114 % of control
T/C (dose: 0.19 mg/kg/injection, schedule: Q01DX009 (ip), vehicle: other): 113 % of control
T/C (dose: 0.38 mg/kg/injection, schedule: Q01DX009 (ip), vehicle: other): 105 % of control
T/C (dose: 0.75 mg/kg/injection, schedule: Q01DX009 (ip), vehicle: other): 88 % of control and 111 % of control
T/C (dose: 1.5 mg/kg/injection, schedule: Q01DX009 (ip), vehicle: other): 110 % of control
T/C (dose: 3.0 mg/kg/injection, schedule: Q01DX009 (ip), vehicle: other): 101 % of control and 108 % of control
T/C (dose: 6.0 mg/kg/injection, schedule: Q01DX009 (ip), vehicle: other): 89 % of control
T/C [1]: 93 % of control

Nn1c(=O)[nH][nH]c1=O
T/C [2]: 92 % of control
T/C [3]: 110 % of control
T/C [4]: 115 % of control
T/C [5]: 89 % of control
T/C [6]: 105 % of control
T/C [7]: 105 % of control

O=C1NC(O)CCN1C1OC(CO)C(O)C1O (stereo not drawn)
T/C (dose: 25.0 mg/kg/injection, schedule: Q01DX009 (ip), vehicle: saline): 111 % of control and 124 % of control
T/C [8]: 110 % of control and 121 % of control
T/C [9]: 102 % of control and 106 % of control
T/C [10]: 96 % of control and 120 % of control
T/C (dose: 400.0 mg/kg/injection, schedule: Q01DX009 (ip), vehicle: saline): 106 % of control and 118 % of control
T/C (dose: 800.0 mg/kg/injection, schedule: Q01DX009 (ip), vehicle: saline): 105 % of control and 107 % of control

Cc1c(O)ccc(=O)n1O
T/C (dose: 40.0 mg/kg/injection, schedule: Q01DX009 (ip), vehicle: saline with Tween-80): 97 % of control
T/C (dose: 80.0 mg/kg/injection, schedule: Q01DX009 (ip), vehicle: saline with Tween-80): 101 % of control and 102 % of control and 111 % of control
T/C (dose: 160.0 mg/kg/injection, schedule: Q01DX009 (ip), vehicle: saline with Tween-80): 94 % of control (2×) and 111 % of control
T/C (dose: 320.0 mg/kg/injection, schedule: Q01DX009 (ip), vehicle: saline with Tween-80): 97 % of control

Clc1ccc(Br)c(Cl)c1
T/C [3]: 93 % of control
T/C [5]: 93 % of control
T/C (dose: 400.0 mg/kg/injection, schedule: Q01DX009 (ip), vehicle: Klucel (hydroxypropylcellulose) (HPC)): 93 % of control

CCCC(=O)NC1=C(N2CC2)C(=O)C(NC(=O)CCC)=C(N2CC2)C1=O
T/C (dose: 1.0 mg/kg/injection, schedule: Q01DX009 (ip), vehicle: saline): 86 % of control
T/C (dose: 2.0 mg/kg/injection, schedule: Q01DX009 (ip), vehicle: saline): 118 % of control

O=[N+]([O-])C(CO)(CO)CO
T/C (dose: 100.0 mg/kg/injection, schedule: Q04DX003 (ip), vehicle: saline): 110 % of control
T/C (dose: 200.0 mg/kg/injection, schedule: Q04DX003 (ip), vehicle: saline): 110 % of control
T/C (dose: 400.0 mg/kg/injection, schedule: Q04DX003 (ip), vehicle: saline): 96 % of control

OCCCCc1nccc2c1[nH]c1ccccc12
T/C (dose: 12.5 mg/kg/injection, schedule: Q01DX009 (ip), vehicle: Klucel (hydroxypropylcellulose) (HPC)): 97 % of control
T/C [11]: 95 % of control
T/C [2]: 95 % of control
T/C [3]: 96 % of control

COC(=O)[C@H]1[C@H]2C[C@@H]3c4[nH]c5cc(OC)ccc5c4CCN3C[C@H]2C[C@@H](OC(=O)c2cccc(N(C)C)c2)[C@@H]1OC
T/C (dose: 0.39 mg/kg/injection, schedule: Q01DX009 (ip), vehicle: Klucel (hydroxypropylcellulose) (HPC)): 93 % of control
T/C (dose: 0.78 mg/kg/injection, schedule: Q01DX009 (ip), vehicle: Klucel (hydroxypropylcellulose) (HPC)): 91 % of control and 94 % of control
T/C (dose: 1.56 mg/kg/injection, schedule: Q01DX009 (ip), vehicle: Klucel (hydroxypropylcellulose) (HPC)): 97 % of control and 116 % of control
T/C (dose: 3.12 mg/kg/injection, schedule: Q01DX009 (ip), vehicle: Klucel (hydroxypropylcellulose) (HPC)): 94 % of control

Cc1cc(C)cc(OC(=O)Nc2ccccc2Cl)c1
T/C (dose: 100.0 mg/kg/injection, schedule: Q04DX003 (ip), vehicle: Klucel (hydroxypropylcellulose) (HPC)): 96 % of control
T/C (dose: 200.0 mg/kg/injection, schedule: Q04DX003 (ip), vehicle: Klucel (hydroxypropylcellulose) (HPC)): 96 % of control
T/C (dose: 400.0 mg/kg/injection, schedule: Q04DX003 (ip), vehicle: Klucel (hydroxypropylcellulose) (HPC)): 106 % of control

C=CCOP(=O)(OCC=C)OCC=C
T/C [11]: 96 % of control
T/C [2]: 100 % of control

CC1(CC(C)(C)C2CCCCC2)OCCO1
T/C (dose: 12.5 mg/kg/injection, schedule: Q01DX009 (ip), vehicle: other): 100 % of control
T/C (dose: 25.0 mg/kg/injection, schedule: Q01DX009 (ip), vehicle: other): 93 % of control
T/C [1]: 90 % of control

COC1OC(CO)C(O)C(NC(=O)N(C)N=O)C1O (stereo not drawn)
T/C (dose: 12.5 mg/kg/injection, schedule: Q01DX009 (ip), vehicle: saline): 105 % of control
T/C [8]: 150 % of control
T/C [9]: 176 % of control and 195 % of control
T/C [10]: 196 % of control and 209 % of control

C/C=C/c1ccc(OC(C)=O)c(OC)c1
T/C [4]: 106 % of control
T/C [6]: 97 % of control
T/C [7]: 100 % of control

O=[N+]([O-])c1cccnc1Oc1cccc(C(F)(F)F)c1
T/C (dose: 135.0 mg/kg/injection, schedule: Q04DX003 (ip), vehicle: Klucel (hydroxypropylcellulose) (HPC)): 110 % of control
T/C (dose: 195.0 mg/kg/injection, schedule: Q04DX003 (ip), vehicle: Klucel (hydroxypropylcellulose) (HPC)): 115 % of control
T/C (dose: 450.0 mg/kg/injection, schedule: Q04DX003 (ip), vehicle: Klucel (hydroxypropylcellulose) (HPC)): 100 % of control

N[C@H](C(=O)O)[C@H]1ON=C(Cl)[C@@H]1O
T/C (dose: 4.0 mg/kg/injection, schedule: Q01DX009 (ip), vehicle: saline): 90 % of control
T/C (dose: 8.0 mg/kg/injection, schedule: Q01DX009 (ip), vehicle: saline): 94 % of control
T/C (dose: 16.0 mg/kg/injection, schedule: Q01DX009 (ip), vehicle: saline): 103 % of control
T/C (dose: 32.0 mg/kg/injection, schedule: Q01DX009 (ip), vehicle: saline): 106 % of control
T/C (dose: 64.0 mg/kg/injection, schedule: Q01DX009 (ip), vehicle: saline): 102 % of control and 115 % of control
T/C (dose: 128.0 mg/kg/injection, schedule: Q01DX009 (ip), vehicle: saline): 101 % of control
T/C (dose: 256.0 mg/kg/injection, schedule: Q01DX009 (ip), vehicle: saline): 107 % of control
T/C (dose: 512.0 mg/kg/injection, schedule: Q01DX009 (ip), vehicle: saline): 109 % of control

Nc1nc(=S)c2[nH]c(N=Nc3ccc(S(=O)(=O)O)cc3)nc2[nH]1
T/C (dose: 6.25 mg/kg/injection, schedule: Q04DX003 (ip), vehicle: saline): 107 % of control
T/C (dose: 12.5 mg/kg/injection, schedule: Q04DX003 (ip), vehicle: saline): 109 % of control

O=C1C=CC2(CCC23C=CC(=O)O3)O1 (stereo not drawn)
T/C (dose: 7.5 mg/kg/injection, schedule: Q01DX009 (ip), vehicle: Klucel (hydroxypropylcellulose) (HPC)): 87 % of control
T/C (dose: 15.0 mg/kg/injection, schedule: Q01DX009 (ip), vehicle: Klucel (hydroxypropylcellulose) (HPC)): 93 % of control
T/C (dose: 30.0 mg/kg/injection, schedule: Q01DX009 (ip), vehicle: Klucel (hydroxypropylcellulose) (HPC)): 92 % of control
